# Results taken from ChEMBL document CHEMBL3091292, “Towards tropomyosin-related kinase B (TrkB) receptor ligands for brain imaging with PET: radiosynthesis and evaluation of 2-(4-[(18)F]fluorophenyl)-7,8-dihydroxy-4H-chromen-4-one and 2-(4-([N-methyl-(11)C]-dimethylamino)phenyl)-7,8-dihydroxy-4H-chromen-4-one” (Bioorg Med Chem, 2013).
# Experiments:
# Brain = test: Biodistribution in Sprague-Dawley rat brain assessed as drug level per body weight at 230 to 876 uCi, iv after 60 mins by PET imaging analysis; format: ADME, organism-based; conditions: in vivo, 1 h
# [1] = Octanol-phosphate buffered saline partition coefficient, log D of the compound at pH 7.4 by shake-flask method; format: physicochemical
# [2] = Plasma protein binding in rat after 15 mins; format: ADME, cell-free; conditions: read-out: PPB (converted)
# [3] = Half life in rat plasma by HPLC analysis; format: ADME, cell-free
# Rattus norvegicus [4] = test: Biodistribution in Sprague-Dawley rat whole brain assessed as drug level per body weight at 230 to 876 uCi, iv after 30 mins by PET imaging analysis; format: ADME, organism-based; conditions: in vivo, 0.5 h
# Kidney = test: Biodistribution in Sprague-Dawley rat kidney assessed as drug level per body weight at 230 to 876 uCi, iv after 60 mins by PET imaging analysis; format: ADME, organism-based; conditions: in vivo, 1 h
# Liver = test: Biodistribution in Sprague-Dawley rat liver assessed as drug level per body weight at 230 to 876 uCi, iv after 120 mins by PET imaging analysis; format: ADME, organism-based; conditions: in vivo, 2 h
# Aorta = test: Biodistribution in Sprague-Dawley rat aorta assessed as drug level per body weight at 230 to 876 uCi, iv after 30 mins by PET imaging analysis; format: ADME, organism-based; conditions: in vivo, 0.5 h
# Cerebellum [5] = test: Biodistribution in rat cerebellum after 65 mins by autoradiography relative to control in presence of BDNF; format: ADME, organism-based; conditions: in vivo
# Thalamus [6] = test: Biodistribution in rat thalamus after 65 mins by autoradiography relative to control in presence of BDNF; format: ADME, organism-based; conditions: in vivo
# Hippocampus [7] = test: Biodistribution in rat hippocampus after 65 mins by autoradiography relative to control in presence of BDNF; format: ADME, organism-based; conditions: in vivo
# Cortex [8] = test: Biodistribution in rat cortex after 65 mins by autoradiography relative to control in presence of BDNF; format: ADME, organism-based; conditions: in vivo
# Striatum [9] = test: Biodistribution in rat striatum after 65 mins by autoradiography relative to control in presence of BDNF; format: ADME, organism-based; conditions: in vivo
# Cerebellum [10] = test: Biodistribution in rat cerebellum after 65 mins by autoradiography relative to control in presence of 7,8-dihydroxyflavone; format: ADME, organism-based; conditions: in vivo
# Thalamus [11] = test: Biodistribution in rat thalamus after 65 mins by autoradiography relative to control in presence of 7,8-dihydroxyflavone; format: ADME, organism-based; conditions: in vivo
# Hippocampus [12] = test: Biodistribution in rat hippocampus after 65 mins by autoradiography relative to control in presence of 7,8-dihydroxyflavone; format: ADME, organism-based; conditions: in vivo
# Striatum [13] = test: Biodistribution in rat striatum after 65 mins by autoradiography relative to control in presence of 7,8-dihydroxyflavone; format: ADME, organism-based; conditions: in vivo
# Cortex [14] = test: Biodistribution in rat cortex after 65 mins by autoradiography relative to control in presence of 7,8-dihydroxyflavone; format: ADME, organism-based; conditions: in vivo
# Cerebellum [15] = test: Biodistribution in rat cerebellum after 65 mins by autoradiography; format: ADME, organism-based; conditions: in vivo
# Hippocampus [16] = test: Biodistribution in rat hippocampus after 65 mins by autoradiography; format: ADME, organism-based; conditions: in vivo
# Thalamus [17] = test: Biodistribution in rat thalamus after 65 mins by autoradiography; format: ADME, organism-based; conditions: in vivo
# Rattus norvegicus [18] = species: Rattus norvegicus; test: Biodistribution in rat caudate putamen after 65 mins by autoradiography; format: ADME, organism-based; conditions: in vivo
# Cerebral cortex = test: Biodistribution in rat cerebral cortex after 65 mins by autoradiography; format: ADME, organism-based; conditions: in vivo
# [19] = Drug degradation in rat plasma after 90 mins by HPLC analysis; format: ADME, cell-free; conditions: read-out: Drug degradation
# [20] = biological target: BDNF/NT-3 growth factors receptor (Homo sapiens, UniProt Q16620); test: Binding affinity to TrkB receptor extracellular domain (unknown origin) after 10 mins by liquid Scatchard plot analysis
# BDNF/NT-3 growth factors receptor, sequence (Q16620 whole entry, the tested form may be a part): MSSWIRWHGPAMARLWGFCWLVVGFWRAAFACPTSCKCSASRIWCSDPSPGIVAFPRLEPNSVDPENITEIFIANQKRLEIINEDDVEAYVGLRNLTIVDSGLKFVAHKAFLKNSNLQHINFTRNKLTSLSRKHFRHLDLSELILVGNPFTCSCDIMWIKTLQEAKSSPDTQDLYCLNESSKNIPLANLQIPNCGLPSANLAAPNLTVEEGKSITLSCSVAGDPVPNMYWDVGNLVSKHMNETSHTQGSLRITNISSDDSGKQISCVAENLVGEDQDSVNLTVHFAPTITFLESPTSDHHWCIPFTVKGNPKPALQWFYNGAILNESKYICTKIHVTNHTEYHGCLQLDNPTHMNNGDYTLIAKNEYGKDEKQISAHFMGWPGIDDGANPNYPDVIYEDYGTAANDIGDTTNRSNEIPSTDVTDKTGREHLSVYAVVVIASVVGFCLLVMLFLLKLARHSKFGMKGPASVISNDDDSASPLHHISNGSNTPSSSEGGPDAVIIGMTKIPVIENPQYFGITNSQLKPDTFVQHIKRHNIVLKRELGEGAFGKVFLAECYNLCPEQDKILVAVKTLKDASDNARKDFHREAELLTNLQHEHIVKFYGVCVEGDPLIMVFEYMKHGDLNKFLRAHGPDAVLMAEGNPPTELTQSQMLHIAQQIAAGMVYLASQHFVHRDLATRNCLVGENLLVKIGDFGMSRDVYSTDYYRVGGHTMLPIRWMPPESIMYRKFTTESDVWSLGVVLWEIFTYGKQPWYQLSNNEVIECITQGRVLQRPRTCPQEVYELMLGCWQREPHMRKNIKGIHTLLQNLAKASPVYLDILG
structure (smiles),measurement,setting,value
CN([11CH3])c1ccc(-c2cc(=O)c3ccc(O)c(O)c3o2)cc1,SUV,Brain,0.7
same,logD,[1],2.8
same,fraction unbound at 0.25 h,[2],0.81
same,half-life,[3],10 min
O=c1cc(-c2ccc([18F])cc2)oc2c(O)c(O)ccc12,SUV,Rattus norvegicus [4],0.64
same,SUV,Kidney,4.38
same,SUV,Liver,6.8
same,SUV,Aorta,6.62
same,Drug uptake,Cerebellum [5],12%
same,Drug uptake,Thalamus [6],11%
same,Drug uptake,Hippocampus [7],10%
same,Drug uptake,Cortex [8],16%
same,Drug uptake,Striatum [9],14%
same,Drug uptake,Cerebellum [10],23%
same,Drug uptake,Thalamus [11],19%
same,Drug uptake,Hippocampus [12],18%
same,Drug uptake,Striatum [13],21%
same,Drug uptake,Cortex [14],17%
same,Drug uptake,Cerebellum [15],Active
same,Drug uptake,Hippocampus [16],Active
same,Drug uptake,Thalamus [17],Active
same,Drug uptake,Rattus norvegicus [18],Active
same,Drug uptake,Cerebral cortex,Active
same,logD,[1],2.2
same,fraction unbound at 0.25 h,[2],0.76
same,metabolised at 1.5 h,[19],10%
"O=c1cc(-c2ccccc2)oc2c(O)c(O)ccc12 [7,8-DIHYDROXYFLAVONE]",Kd,[20],320 nM
